This is an account of results in patent publication US11590117B2, “Treatment of a hematologic malignancy with 2-(4-chlorophenyl)-n-((2-(2,6-dioxopiperidin-3-yl)-1-oxoisoindolin-5-yl)methyl)-2,2-difluoroacetamide” (priority 2016, dated 2023).

The subject of series [1] is DG-75. As to the kind of experiment: CellTiter-Glo (CTG) cell proliferation assay, 72 hours. The format is cell-based. The note with it: Homo sapiens, Burkitt Lymphoma. The procedure:
(§1) Preparation of Solutions of Test Article: Compounds were plated into black 384-well plates (Corning Inc.) to a final DMSO volume of 0.1% assuming a maximal volume of 50 μL. A 10-point dose response starting at 10 μM with a 1:3 dilution was printed in duplicate by acoustic dispense using the EDC ATS-100 platform.
(§2) Cell Proliferation Assays: The effect of Compound 1 on the proliferation/viability of the hematological cell lines (Table 1 Table, Table 2 and Table 3), THLE-2, or PBMCs was assessed after 72 hours incubation using CTG (Promega), according to manufacturer's instructions. Hematological cell lines were dispensed into compound plates by a Multidrop™ Combi Reagent Dispenser (Thermo Scientific, Waltham, Mass.) at a concentration of 0.1 to 0.3×10^6 cells per mL in a 50 μL total volume. THLE-2 cells were seeded out at 1000 cells per well in 50 μL volume and incubated for 72 hours. At 72 hours, 25 μL per well of CTG was dispensed by a Multidrop™ Combi Reagent Dispenser and adenosine triphosphate (ATP) release by viable cells was measured as relative luminescence units after 30 minutes using the Envision platform.
(In general: ATP-based viability assays read luminescence as a measure of living cells.)

In series [2] the test system is U2932. The description is as above. It counts as cell-based. The conditions noted are these: Homo sapiens, Diffuse Large B-cell Lymphoma (activated B-cell like). Here is the method: as §1, §2
Series [3] deals with Raji. The description is as above. The format is cell-based. The note with it: Homo sapiens, Burkitt Lymphoma. The procedure:
as §1, §2

Series [4] relates to Namalwa. The description is as above. It counts as cell-based. The note with it: Homo sapiens, Burkitt Lymphoma. The procedure: as §1, §2
Series [5] relates to EB-1. The description is as above. The format is cell-based. The note with it: Homo sapiens, EB1, Burkitt Lymphoma. The procedure:
as §1, §2

For series [6], the system named is Karpas 231. Described as above. The format is cell-based. The note with it: Homo sapiens, Acute Lymphoblastic Leukemia. The procedure:
as §1, §2

Series [7] relates to BL-70. The series is described as above. It counts as cell-based. The note with it: Homo sapiens, Burkitt Lymphoma. The procedure:
as §1, §2

Series [8] relates to HS-Sultan. Described as above. The format is cell-based. The conditions noted are these: Homo sapiens, Burkitt Lymphoma. The procedure: as §1, §2
Series [9] has as its system OCI-LY-10. The series is described as above. The format is cell-based. The note with it: Homo sapiens, OCI-Ly10, Diffuse Large B-cell Lymphoma (activated B-cell like). The procedure: as §1, §2
Series [10] relates to SR. The series is described as above. It counts as cell-based. The conditions noted are these: Homo sapiens, Acute Lymphoblastic Leukemia. The procedure: as §1, §2
Series [11] concerns MDS progenitor cells. In words: MDS colony forming assay in Methocult. It counts as cell-based, human. The conditions noted are these: 24 hours exposure; compared with liquid culture. Here is the method:
Methods. The effect of Compound 1 on high risk MDS samples was measured in an in vitro liquid culture as well as by colony assays in order to better define its effect on stem/progenitor cells. Bone marrow mononuclear cells (BMMCs) from high risk MDS patients were cultured in vitro in CellGro medium (GellGenix) supplemented with hLDL (40 μg/mL), SCF (50 ng/mL), FLT3 […] (50 ng/mL), IL-3 (10 ng/mL), IL-6 (25 ng/mL) and TPO (100 ng/mL), all from Peprotech. During culture, cells were exposed to different concentrations of Compound 1 (37, 111, 333 and 1000 nM) or DMSO control. After 24 hours, cells were washed twice to remove compound and maintained in culture up to one week, performing viable cell counting on days 1, 3 and 7. Just after compound washout, […] per condition were collected for colony forming assays and another […] were stained for intracellular flow cytometry.
For colony forming assays cells were seeded in Methocult media (Stem Cell Technologies), incubated at 37° C. during 14 days and scored by automatic counting using StemVision (Stem Cell Technologies).

Series [12] relates to Bone marrow CD34+ cells from healthy donors (myeloid differentiation). In words: Neutrophil maturation ex vivo, bone marrow CD34+ cells, flow cytometry. The format is cell-based. Here is the method: Compound 1 effects on the proliferation of CFU-GM progenitor cells are of special relevance because of the role of these progenitor cells in drug-induced neutropenia. Neutrophils are derived from CFU-GM progenitors occurring through distinct stages, from progenitor cells through myeloblasts (stage I), promyelocytes (stage II) and myelocytes (stage III) that finally mature towards neutrophils with banded or segmented nuclei. The effects of Compound 1 on neutrophil maturation were determined by using two-dimensional cultivation of progenitors followed by flow cytometry. Bone marrow CD34+ cells obtained from healthy volunteers were transferred to tissue culture medium and myeloid differentiation was induced ex vivo by adding stem cell factor (SCF), Fms-related tyrosine kinase 3 ligand (Flt-3 ligand), and granulocyte colony stimulating factor (G-CSF). Concentrations of Compound 1 up to 30 nM and exposure times of 8, 24, and 72 hours starting at Day 0 were selected to evaluate the effect of Compound 1 in this system. After exposure to Compound 1, cells were washed and then incubated in culture medium in the absence of Compound 1 until Day 14. Cell differentiation and apoptosis were measured in a flow cytometry-based method at Days 3, 7, 10, and 14 of culture, with apoptotic and dead cells identified as Annexin V positive and 7-aminoactinomycin D positive.
In FIG. 34, Bone marrow C34+ cells from healthy donors were incubated with 30 nM Compound 1 or DMSO. Compound 1 was washed out after 8, 24 or 72 hours, the medium was replaced, and the cultures were incubated until Day 14 in the absence of Compound 1 or DMSO. Cells were classified from most immature to most mature as HPC, Stage I, Stage II, Stage III and Stage IV according to their expression of CD34, CD33 and CD11b. Then apoptotic cells from each stage were identified as positive for Annexin V and labeled as AV+ HPC, AV+ Stage I, AV+ Stage II, AV+ Stage II and AV+ Stage IV. […] Representative results are shown for bone marrow progenitors from one of two healthy donors evaluated. […]
In general terms: A flow cytometer gives signals particle by particle.

A value given as a limit tells only on which side of the number the result lay.

Usually IC50 stands for the point on the concentration scale where inhibition reaches its midpoint. Low readings indicate greater potency in that assay, high ones weaker potency in that assay.

Regarding `O=C1CCC(N2Cc3cc(CNC(=O)C(F)(F)c4ccc(Cl)cc4)ccc3C2=O)C(=O)N1` (centres unmarked) [Compound 1, 2-(4-chlorophenyl)-N-((2-(2,6-dioxopiperidin-3-yl)-1-oxoisoindolin-5-yl)methyl)-2,2-difluoroacetamide], the IC50 is > 10000 nM in series [1]; 904 nM in [2]; > 10000 nM in series [3]; 74.6 nM in [4]; 66.3 nM in series [5]; 790 nM in [6]. In addition, the half-inhibitory concentration (IC50) in [7] is 347 nM; in series [8], > 10000 nM; in [9], > 10000 nM; in [10], > 10000 nM. Also, the “effect on MDS progenitor cells in colony forming assays” value in series [11] is reported as “more acute”. In addition, the “viability during neutrophil maturation” value in series [12] (30 nM (highest concentration tested), exposure 24 hours and 72 hours) is “decreased”; in series [12] (≤3 nM in 24-hour and 72-hour exposure groups, or 0.03 to 30 nM with 8 hours exposure) it was “no reduction in viability”. In addition, the “cell viability after removal of Compound 1” value in [12] (30 nM, cultures exposed for 24 hours) is on record as “reaching control values at Day 10”.
